System: antiserum (antibody raised in rabbits to the antigen of Example I, N-TFA-p-aminoamphetamine coupled to BSA)
Assay: Radioimmune assay for amphetamine: competitive inhibition of 3H-d-amphetamine binding to, and cross-reactivity of, antiserum raised to the antigen of Example I
Details: for Percent Cross-Reactivity: method of Abraham, relative quantity that produces 50% inhibition x 100, d-amphetamine = 100; for Percent Inhibition of Binding 3H-d-amphetamine: 3H-d-amphetamine 137 picograms, 2 hours, 4° C

| Compound | Percent Cross-Reactivity | also measured |
| --- | --- | --- |
| C[C@@H](N)Cc1ccccc1 [1-amphetamine] | 1.45% |  |
| C[C@H](N)Cc1ccccc1 [d-amphetamine] | 100% | Percent Inhibition of Binding 3H-d-amphetamine (250 picograms of unlabeled amphetamine): 12%; Percent Inhibition of Binding 3H-d-amphetamine (500 picograms of unlabeled amphetamine): 22%; Percent Inhibition of Binding 3H-d-amphetamine (1,000 picograms of unlabeled amphetamine): 33.5%; Percent Inhibition of Binding 3H-d-amphetamine (10,000 picograms of unlabeled amphetamine): 83.0% |
| CNCC(O)c1ccc(O)c(OC)c1 (stereo not shown) [metanephrine] | < 0.0125% |  |
| CN[C@@H](C)Cc1ccccc1 [methadrine] | 0.45% |  |
| COc1cc(C(O)CN)ccc1O (stereo not shown) [normetanephrine] | < 0.0125% |  |
| NCCc1ccc(O)cc1 [tyramine] | 3.4% |  |

— patent US3996344A, “Phenethylamine antigenic conjugates, their preparation, antibodies and use” (Biological Developments, Inc., priority 1974, dated 1976)
